Laboratory results taken from article PMC7837216, “ISRIB Blunts the Integrated Stress Response by Allosterically Antagonising the Inhibitory Effect of Phosphorylated eIF2 on eIF2B” (Molecular Cell, 2021).
pEC50: −log10 of the molar value.

Assays:
[1] = biological target: T1, eIF2B (decamer; ISRIB pocket formed by the β- and δ-subunits) (Homo sapiens, UniProt P49770+Q9UI10); test: FP competition with FAM-ISRIB; BLI (ISRIB-induced dissociation of eIF2B from P-eIF2α-NTD); type: binding; design: gene EIF2B2; purified recombinant human eIF2B decamer; with eIF2Bβ (EIF2B2), with eIF2Bα, γ, ε in the decamer; P-eIF2α-NTD immobilised in the BLI assay
[2] = biological target: T1, eIF2B (decamer; ISRIB pocket formed by the β- and δ-subunits); test: fluorescence polarization, kinetic displacement by unlabelled ISRIB (koff); type: binding; design: gene EIF2B2; purified recombinant human eIF2B decamer; with eIF2Bβ (EIF2B2), with eIF2Bα, γ, ε in the decamer

Row | Molecule | pEC50 [1] | fluorescence polarization, kinetic displacement by unlabelled ISRIB (koff) [2]
1 | O=C(COc1ccc(Cl)cc1)N[C@H]1CC[C@H](NC(=O)COc2ccc(Cl)cc2)CC1 [ISRIB] | 8.74 | 
2 | FAM-ISRIB |  | 0.0123 s⁻¹
